Tests used:
[1] = test system: 3T3L1 adipocytes cells; assay: cAMP assay in 3T3L1 adipocytes cells; assay type: cell-based; settings: FIG. 13
Protocol: 3T3L1 fibroblast were maintained in DMEM with 4 mM L-glutamine, supplemented with 10% calf serum in a 37° C. humidified incubator with 5% CO2. To differentiate fibroblast into adipocytes, cells were grown for 2 days after confluence. The media was then changed to DMEM containing 10% fetal bovine serum; 0.5 mM isobutylmethlxanthine; 4 μg/ml dexamethasone. 3 days later cells were maintained in DMEM containing 10% fetal bovine serum for two weeks, after which the cells were used for cAMP assay.
[…] The incubation was stopped by replacing the medium with lysis regent supplied in a commercial cAMP kit.
(§1) cAMP levels were determined using cAMP enzymeimmunoassay (EIA) system Biotra Amersham Pharmacia Biotech.

[2] = test system: B16 cells; assay: Melanogenesis in B16 cells (melanin, absorbance 405 nm); assay type: cell-based; settings: tbi formulation; for melanogenesis induction: β3-derived peptides up to 2.5 μM, FIG. 14-18; for EC50: read-out: EC 50 melanogenesis
Protocol: (§2) B16 melanocyet cells were grown in DMEM with 4 mM L-glutamine, supplemented with 10% bovine calf serum in a 37° C. humidified incubator with 5% CO2. The day before the assays, 100 μl of 3×10^4 cells/ml were plated in 96-well microtiter plates overnight.
The day after B16 cells culturing, differential concentrations of stimulator (peptides or αMSH as positive control) were added. The cells were incubated for another 3 days then adding 70 ul of 1N NaOH stopped the reaction. The production of melanin was measured after 24 h as the optical absorbance in […].
“tbi” Formulation: peptides (10 mM final) were dissolved in DMSO (final 8%) and 2M Ammonium Bicarbonate (32% final) were added, the mixture was heated for 40 min then 2M HEPES pH 7.5 60% (final) were added.

[3] = test system: aortic ring; assay: Aortic ring assay (capillary growth ex vivo in collagen matrix gel); assay type: cell-based, rat; settings: for neovascularization effect, each agent alone / angiogenetic effect, each agent alone: R002L103 20 μg; for aortic ring neovascularization in presence of G-protein inhibitor PTX / aortic ring neovascularization: S1P 100 μm, R002L103 20 μm, FIG. 4; for aortic ring neovascularization in presence of G-protein inhibitor PTX: PTX 100 nm/ml; for aortic ring neovascularization: without PTX; for angiogenetic effect, each agent alone: VEGF 12 nm/ml
Protocol: The following are suitable in vivo or ex vivo modes for angiogenesis: • (1) Aortic ring—where sprouting of newly formed blood vessels is tested whole mounts of aortic rings obtained from rats (see below) • (2) Eye assay—where formation of new blood vessels in the cornea of the animal as a response to an FGF-implanted pellet is determined (see below). • (3) Sponge assay—where infiltration of new blood vessels into a sponge implanted s.c. in an experimental animal is determined (see below) • (4) Regression of pre-formed vasculature in tumors (Benjamin L. E. and Kesshet E. PNAS, 94, 8761-8766, (1997)). • (5) Re-establishment of circulation in dissected vessels in the limbs of experimental animals. Experimental Procedures: 1. Aortic Ring-Assay:
The modification of previously described assay (Nicosia, R. F. and Ottinetti, A. “Growth of microvessels in serum-free matrix culture of rat aorta.” Lab. Invest. 63:115-122. 1990) for capillary growth ex vivo was used. The assay is based on the phenomenon of endothelial cells proliferation from freshly prepared aorta placed into collagen matrix gel, that finally formed new capillary system.
The experiments were carried out on two lines of animals—Sabra and Sprague-Dawley rats, males of 200-250 g-body weight (1-2 month old). Rats were acclimated to vivarium for 4-10 days before their use in study protocol. Each group (from 2 to 4) of the animals was housed in separate cage and fed food and water ad libitum.
Animals were sacrificed by decapitation after ether anesthesia Thoracic aortas were dissected and immediately transferred to a Petri dish with bio-mpm-1. The fibroadipose tissue and small vessels around aorta was carefully removed under a dissecting microscope, 1 mm-long aortic rings were sectioned and extensively (2-3 times) rinsed in bio-mpm-1 containing antibiotics (% cat.) (Nicosia and Ottinetti, 1990).
The collagen matrix gel solution (see above) was added to 24-well plate (0.4 ml to each well) and collagen polymerization was allowed for 15 min at 37° C. The aorta rings were transferred to the collagen gel solution (in order to glue them to the bottom layer of the gel) and then placed to the center of each well. In mice, 3 rings are embedded in the same well. After 15 min incubation of the plates at 37° C. another 0.4 ml of the collagen solution was carefully added on the top of the ring. After the gel is formed 0.4 ml of Serum-Free Endothelial Growth Medium (Rhenium, cat. 17601-030) or bio-mpm-1 (Beit Haemeq cat. 05-060-1) was added to each well. Rings were incubated in 37° c. and 10% CO2. Medium is replaced every 2-3 days.
Compound of the invention were added next day after collagen gel formation in concentration 10-20 uM. compounds were dissolved for 10 mM stock in 100% DMSO. Dilution in 0.1% BSA in PBS to 400 uM stock were done for each AR experiment de novo. The compounds were re-added to AR during each medium changing till well developed capillary system in control or experimental wells.
Fixation was carried out by adding of Buffered Formalin 4% (was obtained from BioLab, cat. 66554) 1.5 ml in each well. An hour later solution was changed to fresh Formalin in order to better fixation (overnight).
We used Crystal Violett (Gencian Violett) 0.02% in Ethanol Abs. as staining solution (1 ml for each well overnight at room temperature). After staining, wells were washed massively with 0.02% Sodium Azide water solution during two or three days till transparent matrix.
Digital pictures were analyzed using ImagePro™ software. The total capillary length of at least 6 AR was measured. Dividing the total capillary length to AD diameter normalized the data.

[4] = test system: cornea of mice; assay: Eye assay (neovascularization in the cornea after pellet implantation); assay type: in vivo; settings: five days after implantation; for blood vessels course of growth: FIG. 10
Protocol: The modification of the assay previously described in “A model of angiogenesis in the mouse cornea” B. M. Kenyon, E. E. Voest, C. C. Chen, E. Flynn J. Folkman and R. J. D'Amato Investigative Ophthalmology & Visual Science, July 1996, Vol. 37, No. 8 1625-1632 was used. The assay is based on the phenomena of formation of new blood vessels in the cornea of mice in response to the implantation in the cornea of a pellet impregnated with FGF.
1. To prepare—Hydron concentrated stock solution (120 mg/ml in ethanol Abs.) • Hydron diluted stock solution (60 mg/ml in ethanol Abs.) • sucralfate stock solution (500 mg/ml in solution S sterile!). • 10 mg peptide.
2. Add 30 μl of solution S to peptide (or 10 μl of solution S and 20 μl of FGF).
3. Add 20 μl of sucralfate stock solution—vortex, speedvac for 5 min (more if needed).
4. Add […] hydron diluted stock solution to sucralfate+FGF+peptide pellet.
Mice were anesthetized with Ketamin/Rompun Solution (for dosage and solutions preparation see standard anesthetic procedure). The eye is topically anesthetized with Localin (Benoxynate HCl 0.4%, Dr. Fisher, Pharmaceutical Labs, P.O.B. 39071, Tel-Aviv 61390). Using a binocular microscope, a central intrastromal linear keratotomy is performed with a surgical blade parallel to the insertion of the lateral rectus muscle. Approximate length of the cut is 0.5-0.6 mm length. The globe is proptosed with a forceps. A lamellar micropocket is dissected toward the temporal limbus using the modified von Graefe knife 2×30 mm. All following procedures must be done without proptosis. A pellet is placed on the corneal surface in the base of the pocket and advanced to the temporal end of the pocket with one arm of the forceps. The distance between pellet and limbal vessel is measured. For FGF containing pellets, the pocket must be extended within 1 mm of the limbus. Antibiotic and antimycotic ointment are applied to the operated eye to prevent infection and additional irritation of the cornea.
Measurements were done at 5th and 7th days after implantation. In the case of high stimulation inspections were done twice a week till full degradation. The maximum vessel length of neovascularization zone, extending from the limbal vessel toward the pellet was measured. The econtiguous circumferential zone of neovascularization was measured as clock hours (where 30° are equals 1 clock hour.)

[5] = test system: β2-adrenergic transfected HEK293 cells; assay: cAMP assay in β2-adrenergic transfected HEK293 cells; assay type: cell-based; settings: 10 μM peptide, after 1 h, FIG. 11
Protocol: The HEK293 cells were grown in Dulbecco's Modified Eagle's medium (DMEM) with 4 mM L-glutamine, supplemented with 10% horse serum in a 37° C. humidified incubator with 5% CO2. HEK293 cells were transfected using the fuGENE 6 Transfection Reagent. The following amounts of each expression plasmid were used for transfection of each well in a 6-well culture plate: 3 ug of pBK-flag β2AR; 3 ug of pRK5-GRK2 or in combination of 1.5 ug of pBK-flag β2AR and pRK5-GRK2. Cells were harvested after 24 h and transferred into 96-well culture plate (10^5 cells/ml) and a cAMP assay was carried out 48 h post transfection.
(§3) At the day of the assay medium was replaced with serum free medium containing 0.5 mM 3-isobutyl-methylxanthine and the experimental peptides were added for 60 min. The incubation was stopped by replacing the medium with lysis regent supplied in a commercial cAMP kit.
as §1

[6] = test system: B16 cells; assay: cAMP assay in B16 cells; assay type: cell-based; settings: 10 μM peptide, after 1 h, FIG. 12
Protocol: as §2, §3, §1

In the case of “R013L102: β3-adrenergic Loop 2 derived peptide (GLRYGALVTK)”, the “level of cAMP increase” value ([1]; after 120 min of incubation) is reported as “did not affect” and the melanogenesis induction [2] is reported as “failed as melanogenesis inducers”.
SCF: another pro-angiogenetic compound was tested, and the “neovascularization effect, each agent alone” value (from here on “neovascularization effect”) ([3]; SCF 30 nm/ml, FIG. 7) was “no neovascularization effect”.
With “LGLLRRHSI [K024H124, MC1 receptor Loop 2 derived-modified peptide]” the EC50 [2] was 150 nM and the melanogenesis induction [2] was “very efficient in inducing melanogenesis”.
In the case of “R002L103: peptide based on sequence SEQ ID NO:3 of the 2nd loop of EDG3 (FIG. 1A) (MRPYDANKR)”, the “neovascularization in the eye in response to implantation of a pellet” value ([4]; FIG. 9) is reported as “marked neovascularization”, the “number of blood vessels compared to VEGF” value ([4]; FIG. 9) is reported as “larger number of blood vessels” and the “blood vessels course of growth” value [4] is reported as “relatively straight”. The “angiogenesis in aortic rings” value ([3]; 10 μm and 20 μm R002L103, degree at least equal to that of S1P 100 nm, FIG. 3) was “increase angiogenesis in a dose dependent manner”, the capillary length ([3]; 20 μm, FIG. 2) was “decreased” and the “neovascularization effect” value ([3]; FGF 10 ng/ml, FIG. 8) was “no effect”. The “neovascularization, combination with FGF” value ([3]; R002L103 20 μg + FGF 10 ng/ml, FIG. 8) was “very significant neovascularization”, the “neovascularization, combination with SCF” value ([3]; R002L103 20 μg + SCF 30 nm/ml, FIG. 7) was “marked synergism and significant neovascularization” and the “neovascularization, combination with VEGF” value ([3]; R002L103 20 μg + VEGF 12 nm/ml, FIG. 6) was “marked and significant neovascularization”. For the same molecule, the “aortic ring neovascularization in presence of G-protein inhibitor PTX” value [3] was “completely blocked”, the aortic ring neovascularization [3] was “caused neovascularization” and the “neovascularization effect” value ([3]; SCF 30 nm/ml, FIG. 7) was “no neovascularization effect”. For the same molecule, the “angiogenetic effect, each agent alone” value ([3]; FIG. 6) was “hardly any angiogenetic effect”, the capillary length ([3]; from control to 10 μm, FIG. 2) was “increased” and the capillary thickness ([3]; various concentrations of R002L103, FIG. 2) was “directly correlated to the concentration”.
In the case of VEGF, the “neovascularization in the eye in response to implantation of a pellet” value ([4]; FIG. 9) is reported as “able to induce neovascularization”, the “blood vessels course of growth” value [4] is reported as “more coiled” and the “angiogenetic effect, each agent alone” value ([3]; FIG. 6) is reported as “hardly any angiogenetic effect”.
For “GLLRRHS [K024H107, MC1 receptor Loop 2 derived-modified peptide]”, the EC50 [2] was 2000 nM and the melanogenesis induction [2] was “very efficient in inducing melanogenesis”.
For “R013L103: β3-adrenergic Loop 2 derived peptide (GPLRYGALVT)”, the “level of cAMP increase” value ([1]; after 120 min of incubation) was 18 fold, the melanogenesis induction [2] was “failed as melanogenesis inducers” and the “cAMP production comparing to the control level” value (shortened to “cAMP production comparing”) [5] was “did not affect”. For the same molecule, the “cAMP production comparing” value [6] was “did not affect”.
“R013L101: β3-adrenergic Loop 2 derived peptide (GNPLRYGALVT)” was tested, and the “level of cAMP increase” value ([1]; after 60 min of incubation) was 18 fold, the melanogenesis induction [2] was “failed as melanogenesis inducers” and the “cAMP production comparing” value [5] was 140%. The “cAMP production comparing” value [6] was 900%.
For CCCCCCCCCCCCC/C=C/[C@@H](O)[C@@H](N)COP(=O)(O)O [S1P, sphingosine-1-phosphate, reference compound], the “aortic ring neovascularization in presence of G-protein inhibitor PTX” value [3] was “completely blocked” and the aortic ring neovascularization [3] was “caused neovascularization”.
With “FGF: pro-angiogenetic compound; bFGF, human recombinant, in materials” the “neovascularization effect” value ([3]; FGF 10 ng/ml, FIG. 8) was “no effect”.
